Several values for one entry are separate records, joined by “and”; a condition that tells them apart may be missing. Identical values can stand only once.
What was measured:
Acetylcholinesterase = Acetylcholinesterase (Electrophorus electricus, UniProt O42275); assay: Cholinesterase Inhibition Assay
[1] = molecular target: Carboxylic ester hydrolase (Equus caballus, UniProt Q9N1N9); assay: Cholinesterase Inhibition Assay
Carboxylic ester hydrolase, sequence (Q9N1N9 whole entry): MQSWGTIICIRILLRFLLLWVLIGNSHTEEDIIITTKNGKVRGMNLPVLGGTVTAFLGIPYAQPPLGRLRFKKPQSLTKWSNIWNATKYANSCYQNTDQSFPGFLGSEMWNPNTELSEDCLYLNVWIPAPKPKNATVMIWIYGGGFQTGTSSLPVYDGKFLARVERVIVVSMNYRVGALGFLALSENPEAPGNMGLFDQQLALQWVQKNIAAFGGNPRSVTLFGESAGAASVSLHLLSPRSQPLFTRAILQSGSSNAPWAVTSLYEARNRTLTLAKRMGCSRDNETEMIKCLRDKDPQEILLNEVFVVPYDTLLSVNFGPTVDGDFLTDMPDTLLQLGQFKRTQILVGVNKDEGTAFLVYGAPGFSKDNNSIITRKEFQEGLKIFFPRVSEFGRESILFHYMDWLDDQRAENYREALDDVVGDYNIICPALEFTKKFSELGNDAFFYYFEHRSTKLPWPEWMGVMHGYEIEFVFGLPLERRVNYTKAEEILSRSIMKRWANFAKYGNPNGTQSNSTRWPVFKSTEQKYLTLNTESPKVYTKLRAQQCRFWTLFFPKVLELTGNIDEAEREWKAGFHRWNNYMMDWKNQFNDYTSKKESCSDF

Acetylcholinesterase, sequence (O42275 whole entry): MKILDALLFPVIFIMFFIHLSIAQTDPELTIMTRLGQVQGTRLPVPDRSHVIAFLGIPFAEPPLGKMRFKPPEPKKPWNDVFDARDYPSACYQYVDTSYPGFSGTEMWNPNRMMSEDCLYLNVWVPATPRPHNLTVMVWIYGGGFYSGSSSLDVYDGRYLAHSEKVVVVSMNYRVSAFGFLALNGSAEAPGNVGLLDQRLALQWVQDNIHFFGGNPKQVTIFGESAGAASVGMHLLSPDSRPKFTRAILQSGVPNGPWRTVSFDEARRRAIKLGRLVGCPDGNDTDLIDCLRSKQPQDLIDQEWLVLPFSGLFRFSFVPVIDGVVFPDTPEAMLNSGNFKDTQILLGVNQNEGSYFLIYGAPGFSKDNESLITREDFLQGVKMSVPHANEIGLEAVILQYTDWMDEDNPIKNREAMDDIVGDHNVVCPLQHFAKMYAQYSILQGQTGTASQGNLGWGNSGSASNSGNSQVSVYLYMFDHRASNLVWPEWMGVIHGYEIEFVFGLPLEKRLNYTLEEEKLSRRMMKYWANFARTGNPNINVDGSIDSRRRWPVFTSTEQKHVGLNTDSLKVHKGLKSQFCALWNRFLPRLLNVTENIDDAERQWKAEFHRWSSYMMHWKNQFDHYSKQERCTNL

| SMILES | IC50 (Acetylcholinesterase) | IC50 [1] |
| --- | --- | --- |
| CC(=O)NC(Cc1ccccc1F)C(=O)Nc1ccccc1 (centres undefined) [2-Acetamido-3-(2-fluorophenyl)-N-phenylpropanamide (1e)] | 86.3 µM | 121 µM |
| CC(=O)NC(Cc1ccccc1F)C(=O)Oc1ccc(C(F)(F)F)cc1 (centres undefined) [4-(Trifluoromethyl)phenyl 2-acetamido-3-(2-fluorophenyl)propanoate (1i)] | 68 µM and 62.9 µM | 37.4 µM and 59.8 µM |
| CC(=O)NC(Cc1cccc(F)c1)C(=O)Oc1ccccc1 (centres undefined) [Phenyl 2-acetamido-3-(3-fluorophenyl)propanoate (2j)] | 87.8 µM | 53.7 µM |
| CC(=O)NC(Cc1ccc(F)cc1)C(=O)Nc1ccc(C(F)(F)F)cc1 (centres undefined) [2-Acetamido-3-(4-fluorophenyl)-N-[4-(trifluoromethyl)phenyl]propanamide (3d)] | 84.1 µM | 289 µM |
| CC(=O)NC(Cc1ccc(F)cc1)C(=O)Nc1ccc(C)cc1 (centres undefined) [2-Acetamido-3-(4-fluorophenyl)-N-(4-methylphenyl)propanamide (3b)] | 69 µM | 154 µM |
| CC(=O)NC(Cc1ccc(F)cc1)C(=O)Nc1ccc(Cl)cc1 (centres undefined) [2-Acetamido-N-(4-chlorophenyl)-3-(4-fluorophenyl)propanamide (3a)] | 97 µM | 235 µM |
| CC(=O)NC(Cc1cccc(F)c1)C(=O)Oc1ccc(Cl)cc1 (centres undefined) [4-Chlorophenyl 2-acetamido-3-(3-fluorophenyl)propanoate (2f)] | 115 µM | 52.7 µM |
| CC(=O)NC(Cc1cccc(F)c1)C(=O)Oc1ccc(C)cc1 (centres undefined) [4-Methylphenyl 2-acetamido-3-(3-fluorophenyl)propanoate (2g)] | 68.5 µM | 90.9 µM |
| CC(=O)NC(Cc1ccccc1F)C(=O)Nc1ccc(Cl)cc1 (centres undefined) [2-Acetamido-N-(4-chlorophenyl)-3-(2-fluorophenyl)propanamide (1a)] | 76.5 µM | 227 µM |
| CC(=O)NC(Cc1ccccc1F)C(=O)O (centres undefined) [2-acetamido-3-(2-fluorophenyl)propanoic acid (1)] | 64.2 µM | 217 µM |
| CC(=O)NC(Cc1ccc(F)cc1)C(=O)Oc1ccccc1 (centres undefined) [Phenyl 2-acetamido-3-(4-fluorophenyl)propanoate (3j)] | 98.3 µM | 8.25 µM |
| CC(=O)NC(Cc1cccc(F)c1)C(=O)Nc1ccc(C(F)(F)F)cc1 (centres undefined) [2-Acetamido-3-(3-fluorophenyl)-N-[4-(trifluoromethyl)phenyl]propanamide (2d)] | 79.4 µM | 164 µM |
| CC(=O)NC(Cc1ccccc1F)C(=O)Oc1ccc([N+](=O)[O-])cc1 (centres undefined) [4-Nitrophenyl 2-acetamido-3-(2-fluorophenyl)propanoate (1h)] | 76.7 µM | 77.5 µM |
| CC(=O)NC(Cc1cccc(F)c1)C(=O)Oc1ccc(C(F)(F)F)cc1 (centres undefined) [4-(Trifluoromethyl)phenyl 2-acetamido-3-(3-fluorophenyl)propanoate (2i)] | 62.2 µM | 34 µM |
| CC(=O)NC(Cc1ccc(F)cc1)C(=O)Nc1ccc([N+](=O)[O-])cc1 (centres undefined) [2-Acetamido-3-(4-fluorophenyl)-N-(4-nitrophenyl)propanamide (3c)] | 66 µM | 162 µM |
| CC(=O)NC(Cc1cccc(F)c1)C(=O)Oc1ccc([N+](=O)[O-])cc1 (centres undefined) [4-Nitrophenyl 2-acetamido-3-(3-fluorophenyl)propanoate (2h)] | 74.3 µM | 142 µM |

| SMILES | IC50 (Acetylcholinesterase) | IC50 [1] |
| --- | --- | --- |
| CC(=O)NC(Cc1ccc(F)cc1)C(=O)Oc1ccc(Cl)cc1 (centres undefined) [4-Chlorophenyl 2-acetamido-3-(4-fluorophenyl)propanoate (3f)] | 131 µM | 59.1 µM |
| CC(=O)NC(Cc1cccc(F)c1)C(=O)O (centres undefined) [2-acetamido-3-(3-fluorophenyl)propanoic acid (2)] | 63.6 µM | 210 µM |
| CC(=O)NC(Cc1ccccc1F)C(=O)Nc1ccc(C)cc1 (centres undefined) [2-Acetamido-3-(2-fluorophenyl)-N-(4-methylphenyl)propanamide (1b)] | 69 µM | 113 µM |
| CC(=O)NC(Cc1cccc(F)c1)C(=O)Nc1ccccc1 (centres undefined) [2-Acetamido-3-(3-fluorophenyl)-N-phenylpropanamide (2e)] | 86.5 µM | 157 µM |
| CC(=O)NC(Cc1cccc(F)c1)C(=O)Nc1ccc(Cl)cc1 (centres undefined) [2-Acetamido-N-(4-chlorophenyl)-3-(3-fluorophenyl)propanamide (2a)] | 70.7 µM | 170 µM |
| CC(=O)NC(Cc1ccccc1F)C(=O)Oc1ccccc1 (centres undefined) [Phenyl 2-acetamido-3-(2-fluorophenyl)propanoate (1j)] | 79.2 µM | 30 µM |
| CC(=O)NC(Cc1ccccc1F)C(=O)Nc1ccc(C(F)(F)F)cc1 (centres undefined) [2-Acetamido-3-(2-fluorophenyl)-N-[4-(trifluoromethyl)phenyl]propanamide (1d)] | 73.4 µM | 218 µM |
| CC(=O)NC(Cc1ccccc1F)C(=O)Nc1ccc([N+](=O)[O-])cc1 (centres undefined) [2-Acetamido-3-(2-fluorophenyl)-N-(4-nitrophenyl)propanamide (1c)] | 64.4 µM | 154 µM |
| CC(=O)NC(Cc1ccc(F)cc1)C(=O)O (centres undefined) [2-acetamido-3-(4-fluorophenyl)propanoic acid (3)] | 63.7 µM | 227 µM |
| CC(=O)NC(Cc1ccc(F)cc1)C(=O)Nc1ccccc1 (centres undefined) [2-Acetamido-3-(4-fluorophenyl)-N-phenylpropanamide (3e)] | 99.8 µM | 89.8 µM |
| CC(=O)NC(Cc1ccccc1F)C(=O)Oc1ccc(Cl)cc1 (centres undefined) [4-Chlorophenyl 2-acetamido-3-(2-fluorophenyl)propanoate (1f)] | 104 µM | 82.2 µM |
| CC(=O)NC(Cc1ccc(F)cc1)C(=O)Oc1ccc(C)cc1 (centres undefined) [4-Methylphenyl 2-acetamido-3-(4-fluorophenyl)propanoate (3g)] | 73.3 µM | 83.3 µM |
| CC(=O)NC(Cc1cccc(F)c1)C(=O)Nc1ccc(C)cc1 (centres undefined) [2-Acetamido-3-(3-fluorophenyl)-N-(4-methylphenyl)propanamide (2b)] | 68.7 µM | 143 µM |
| CC(=O)NC(Cc1cccc(F)c1)C(=O)Nc1ccc([N+](=O)[O-])cc1 (centres undefined) [2-Acetamido-3-(3-fluorophenyl)-N-(4-nitrophenyl)propanamide (2c)] | 70.6 µM | 120 µM |
| CC(=O)NC(Cc1ccccc1F)C(=O)Oc1ccc(C)cc1 (centres undefined) [4-Methylphenyl 2-acetamido-3-(2-fluorophenyl)propanoate (1g)] | 57.9 µM | 85.4 µM |
| CC(=O)NC(Cc1ccc(F)cc1)C(=O)Oc1ccc([N+](=O)[O-])cc1 (centres undefined) [4-Nitrophenyl 2-acetamido-3-(4-fluorophenyl)propanoate (3h)] | 60 µM | 126 µM |

Reference: BindingDB's records for doi:10.1016/j.bioorg.2017.02.010 (Charles University, 2017)
